According to patent US20200188473A1, “COMBINATION THERAPY FOR CANCER” (BETH ISRAEL DEACONESS MEDICAL CENTER, INC., priority 2017, published 2020):

What was measured:
[1] = test system: ACE2; assay: transcriptome analysis of untreated vs resistant xenograft tumors; format: in vivo, mice; conditions: for ACE2 down modulation in resistant tumors vs control untreated tumors: 786-0 model
Description: Transcriptome analysis of the untreated tumors vs the resistant tumors was performed. ACE2 was the second most down-modulated gene common to the sorafenib and sunitinib treated 786-0 model with a 2.4 fold down modulation in the resistant tumors vs the control untreated tumors. Moreover, ACE2 was in the top 3 most down-modulated genes in the A498 tumor model with a 5-fold decrease i n resistant tumors vs untreated tumors (P<0.001).

[2] = test system: human VHL deficient RCC cell lines (A498); conditions: A498 xenograft; treatment begun at 12 mm diameter; resistance = time to grow 2 mm beyond pretreatment size; sunitinib 30 mg/kg daily by gavage
Description: A murine xenograft system to study resistance antiangiogenic agents was developed. To assess the effects of antiangiogenic therapy on the growth of human RCC xenografts, established human VHL deficient RCC cell lines (A498) were implanted subcutaneously (1×10^7 cells) into the flanks of 6-8 week old nude/beige mice. The tumors were measured in two axes and the largest axis was followed. Treatment with sunitinib or sorafenib was begun when the tumors reached a diameter of 12 mm (roughly 3 weeks after injection) and resistance to this treatment was monitored. Resistance was defined as the time required for a tumor to grow 2 mm beyond its pretreatment size. […] This model was used to study the mechanisms by which tumors escape angiogenesis inhibition.
The effect of sunitinib and Ang(1-7) on the growth of human RCC xenografts was tested. 1×10^7 cells were injected into the flanks of nude-beige mice. Established human VHL deficient RCC cell lines (A498) were implanted subcutaneously (1×10^7 cells) into the flanks of 6-8 week old nude/beige mice. The tumors were measured in two axes and the largest axis was followed. Treatment with sunitinib (30 mg/kg daily by gavage) and Ang(1-7) 1 mg/kg Ang(1-7) IP three times per week was begun when the tumors reached a diameter of 12 mm (roughly 3 weeks after injection). […]

## CNC(=O)c1cc(Oc2ccc(NC(=O)Nc3ccc(Cl)c(C(F)(F)F)c3)cc2)ccn1 [sorafenib]
[1]
  ACE2 down modulation in resistant tumors vs control untreated tumors: 2.4 fold

## CCN(CC)CCNC(=O)c1c(C)[nH]c(/C=C2\C(=O)Nc3ccc(F)cc32)c1C [sunitinib]
[2]
  period of relative stabilization: 10 to 12 days
[1]
  ACE2 down modulation in resistant tumors vs control untreated tumors: 2.4 fold
[1]; murine xenograft system, sunitinib treatment
  ACE2 expression: loss of ACE2 expression
